# Structures can show the parent of a compound that is named as a salt. Where two headings read alike, the source gives them in different places.
# Assays:
# Type in all cases: biochemical
# MASP-2 = MASP-2 (Homo sapiens (Human), UniProt O00187); experiment: MASP-2 inhibition (Ki)
# Thrombin = Thrombin (Homo sapiens (Human), UniProt P00734); experiment: Thrombin inhibition (Ki); settings: for Ki: read-out: Thrombin Ki
# human α-thrombin = human α-thrombin (Homo sapiens (Human), UniProt P00734); experiment: Enzymatic assay for thrombin (Boc-VPR-AMC substrate)
# mMASP-2 = mMASP-2 (Mus musculus (Mouse), UniProt Q91WP0); experiment: Enzymatic inhibition of mMASP-2
# MASP-2 (CCP1-CCP2-SP) = MASP-2 (CCP1-CCP2-SP) (Homo sapiens (Human), UniProt O00187); experiment: biochemical; settings: for Ki: read-out: MASP-2 Ki
# Lectin Pathway = experiment: Lectin pathway activation assay in human serum (mannan-coated ELISA, C3c detection); settings: 1% human serum
# [1] = selectivity for MASP-2 inhibition versus thrombin
# mMASP-2, sequence (Q91WP0 20-685): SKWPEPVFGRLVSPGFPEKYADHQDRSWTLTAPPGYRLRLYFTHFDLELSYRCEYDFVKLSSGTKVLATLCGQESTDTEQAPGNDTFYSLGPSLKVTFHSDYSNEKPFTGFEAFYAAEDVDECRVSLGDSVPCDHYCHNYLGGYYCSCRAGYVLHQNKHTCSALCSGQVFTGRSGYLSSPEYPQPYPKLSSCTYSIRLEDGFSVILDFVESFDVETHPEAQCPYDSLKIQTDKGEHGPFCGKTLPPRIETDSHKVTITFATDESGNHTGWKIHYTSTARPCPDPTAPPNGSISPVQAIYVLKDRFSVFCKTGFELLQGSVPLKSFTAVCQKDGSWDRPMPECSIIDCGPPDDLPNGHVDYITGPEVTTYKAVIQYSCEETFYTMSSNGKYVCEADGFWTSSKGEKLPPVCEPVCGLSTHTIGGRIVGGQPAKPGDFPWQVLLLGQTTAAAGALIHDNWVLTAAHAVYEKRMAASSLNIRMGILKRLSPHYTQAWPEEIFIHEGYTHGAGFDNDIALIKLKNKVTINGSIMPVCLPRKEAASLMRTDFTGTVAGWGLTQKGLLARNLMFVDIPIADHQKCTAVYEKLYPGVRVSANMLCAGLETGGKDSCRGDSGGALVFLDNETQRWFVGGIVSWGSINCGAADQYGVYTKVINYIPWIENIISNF
# MASP-2, sequence (O00187 16-686): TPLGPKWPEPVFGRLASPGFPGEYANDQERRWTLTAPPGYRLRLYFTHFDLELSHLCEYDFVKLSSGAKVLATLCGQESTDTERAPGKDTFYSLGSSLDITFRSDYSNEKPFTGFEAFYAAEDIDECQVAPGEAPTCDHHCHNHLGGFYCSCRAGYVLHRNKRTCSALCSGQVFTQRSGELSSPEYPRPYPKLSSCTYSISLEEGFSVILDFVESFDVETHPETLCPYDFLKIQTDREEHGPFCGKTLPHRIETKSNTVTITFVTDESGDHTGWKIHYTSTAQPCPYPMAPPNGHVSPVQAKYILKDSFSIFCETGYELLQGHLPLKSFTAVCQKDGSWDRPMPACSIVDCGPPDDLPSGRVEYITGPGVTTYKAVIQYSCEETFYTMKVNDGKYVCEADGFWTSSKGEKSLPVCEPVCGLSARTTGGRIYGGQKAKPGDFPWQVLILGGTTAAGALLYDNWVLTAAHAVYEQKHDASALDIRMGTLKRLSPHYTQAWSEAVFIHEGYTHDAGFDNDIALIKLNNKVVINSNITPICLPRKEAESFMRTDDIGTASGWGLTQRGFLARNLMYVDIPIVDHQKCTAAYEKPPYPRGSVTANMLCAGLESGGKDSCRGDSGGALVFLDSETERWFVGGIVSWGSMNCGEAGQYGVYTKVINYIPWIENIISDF
# MASP-2 (CCP1-CCP2-SP), sequence (O00187 445-686): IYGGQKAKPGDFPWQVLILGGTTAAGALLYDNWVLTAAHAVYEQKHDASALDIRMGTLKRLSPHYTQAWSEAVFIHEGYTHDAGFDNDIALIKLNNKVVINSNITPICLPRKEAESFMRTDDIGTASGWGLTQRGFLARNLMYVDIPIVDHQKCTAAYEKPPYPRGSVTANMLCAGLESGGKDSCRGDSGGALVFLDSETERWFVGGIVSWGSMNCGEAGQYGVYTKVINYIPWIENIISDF
structure (smiles),measurement,setting,value
C/C=C/C=C/C(=O)Nc1ccccc1C(=O)O [compound 37],Ki,MASP-2,25 to 100 µM
same,Thrombin Ki (μM),Thrombin,No activity
CC(=O)Nc1ccc(OC(=O)c2ccccc2NC(=O)c2ccccc2Br)cc1 [compound 33],Ki,MASP-2,< 10 µM
same,Ki,Thrombin,< 10 µM
O=C(O)/C=C/C=C/c1ccco1 [compound 38],Ki,MASP-2,10 to 25 µM
O=c1oc(-c2ccco2)nc2cc(Cl)ccc12 [compound 11],Ki,MASP-2,< 10 µM
same,Thrombin Ki (μM),Thrombin,No Activity
COc1ccccc1C1=N/C(=C\c2cccs2)C(=O)O1 [compound 5],Ki,MASP-2,10 to 25 µM
COc1cccc2c1NC(C(=O)O)C1CC=CC21 (stereo not shown) [compound 15],Ki,MASP-2,25 to 100 µM
same,Thrombin Ki (μM),Thrombin,No activity
CC(=O)c1ccc2c(c1)C1C=CCC1C(C(=O)O)N2 (stereo not shown) [compound 30],Ki,MASP-2,25 to 100 µM
same,Thrombin Ki (μM),Thrombin,No activity
O=C(NNC(=O)c1cc2ccccc2cc1O)c1ccco1 [compound 7],Ki,MASP-2,< 10 µM
same,Ki,Thrombin,< 10 µM
O=C1NC(=S)NC(=O)C1=C/C=C/c1ccco1 [compound 29],Ki,MASP-2,< 10 µM
same,Ki,Thrombin,25 to 100 µM
Cc1ccc(/C=C2\N=C(c3ccccc3F)OC2=O)o1 [compound 2],Ki,MASP-2,< 10 µM
same,Ki,Thrombin,25 to 100 µM
O=C(Nc1nc[nH]n1)c1cccc(I)c1 [compound 36],Ki,MASP-2,< 10 µM
same,Ki,Thrombin,25 to 100 µM
O=C(Oc1cccc([N+](=O)[O-])c1)c1ccco1 [compound 27],Ki,MASP-2,< 10 µM
same,Ki,Thrombin,25 to 100 µM
Cc1ccc(S(=O)(=O)n2nc(OC(=O)c3ccco3)cc2N)cc1 [compound 39],Ki,MASP-2,< 10 µM
same,Ki,Thrombin,10 to 25 µM
O=C1c2ccccc2C(=O)N1Oc1ccc(C(F)(F)F)cc1[N+](=O)[O-] [compound 35],Ki,MASP-2,25 to 100 µM
"C[C@H](NC(=O)[C@H]1C[C@H](Cc2ccccc2)CN1)C(=O)NCc1cnc2[nH]cc(Cl)c2c1 [compound 1334, (2R,4S)-4-Benzyl-N-((S)-1-(((3-chloro-1H-pyrrolo[2,3-b]pyridin-5-yl)methyl)amino)-1-oxopropan-2-yl)pyrrolidine-2-carboxamide Di-hydrochloride]",Ki,human α-thrombin; read-out: Thrombin Ki,< 0.5 µM
same,selectivity for MASP-2 over thrombin,MASP-2; MASP-2 vs thrombin,MASP-2 selective
same,Ki,mMASP-2; read-out: mMASP-2 Ki,< 0.5 µM
same,Ki,MASP-2 (CCP1-CCP2-SP),< 0.5 µM
same,MASP-2 vs. thrombin selectivity,MASP-2 (CCP1-CCP2-SP); [1],−− (<1.0-fold)
O=C(Oc1ccc([N+](=O)[O-])cc1)c1ccc(Br)o1 [compound 20],Ki,MASP-2,< 10 µM
same,Thrombin Ki (μM),Thrombin,No Activity
O=c1oc(-c2cccs2)nc2ccccc12 [compound 10],Ki,MASP-2,< 10 µM
same,Ki,Thrombin,25 to 100 µM
Cc1c(/N=C/c2ccc(OC(=O)c3ccco3)cc2)c(=O)n(-c2ccccc2)n1C [compound 34],Ki,MASP-2,< 10 µM
same,Ki,Thrombin,25 to 100 µM
Cc1cccc2c(=O)oc(-c3ccccc3Cl)nc12 [compound 18],Ki,MASP-2,< 10 µM
same,Ki,Thrombin,< 10 µM
O=c1oc(-c2ccco2)nc2scc(-c3cccs3)c12 [compound 19],Ki,MASP-2,< 10 µM
same,Ki,Thrombin,25 to 100 µM
N=C(N)c1ccc(N)cc1 [compound 47],Ki,MASP-2,25 to 100 µM
same,Thrombin Ki (μM),Thrombin,No activity
O=c1oc(-c2ccccc2[N+](=O)[O-])nc2ccccc12 [compound 14],Ki,MASP-2,< 10 µM
same,Ki,Thrombin,< 10 µM
COc1ccc(S(=O)(=O)n2nc(OC(=O)c3ccco3)cc2N)cc1 [compound 40],Ki,MASP-2,< 10 µM
same,Ki,Thrombin,< 10 µM
COc1ccccc1C1=N/C(=C\c2cc(OC)c(OC)c(OC)c2)C(=O)O1 [compound 4],Ki,MASP-2,< 10 µM
same,Ki,Thrombin,25 to 100 µM
COc1cc(/C=N/NC(=O)Cc2nnc(N)s2)ccc1OC(=O)c1ccco1 [compound 31],Ki,MASP-2,< 10 µM
same,Thrombin Ki (μM),Thrombin,No activity
N=C(N)c1ccc2ccccc2c1 [compound 53],Ki,MASP-2,< 10 µM
same,Ki,Thrombin,10 to 25 µM
Cc1ccccc1C1=N/C(=C\c2ccco2)C(=O)O1 [compound 1],Ki,MASP-2,< 10 µM
same,Ki,Thrombin,< 10 µM
Cc1cc(=O)oc2cc(OC(=O)c3ccco3)ccc12 [compound 12],Ki,MASP-2,< 10 µM
same,Ki,Thrombin,< 10 µM
O=Cc1ccc(OC(=O)c2ccco2)cc1 [compound 21],Ki,MASP-2,< 10 µM
same,Ki,Thrombin,< 10 µM
O=C(O)c1cc(N2N=C(C(F)(F)F)/C(=C\C=C\c3ccco3)C2=O)ccc1Cl [compound 16],Ki,MASP-2,25 to 100 µM
same,Thrombin Ki (μM),Thrombin,No activity
O=C1OC(/C=C/c2ccccc2)=NC/1=C\c1ccco1 [compound 6],Ki,MASP-2,< 10 µM
same,Ki,Thrombin,25 to 100 µM
Cc1c(C(=O)Nc2ccccc2C(=O)O)cccc1[N+](=O)[O-] [compound 9],Ki,MASP-2,< 10 µM
same,Ki,Thrombin,< 10 µM
COC(=O)c1cn(C(=O)c2cc(OC)cc(OC)c2)nc1N [compound 24],Ki,MASP-2,< 10 µM
same,Ki,Thrombin,10 to 25 µM
"Cc1nc(N)ccc1CNC(=O)[C@H](C)NC(=O)[C@H]1C[C@H](Cc2cccc(Br)c2)CN1 [compound 1452, (2R,4S)—N—((S)-1-(((6-Amino-2-methylpyridin-3-yl)methyl)amino)-1-oxopropan-2-yl)-4-(3-bromobenzyl)pyrrolidine-2-carboxamide Dihydrochloride]",Ki,human α-thrombin; Thrombin Ki (μM),0.5 to 2.5 µM
same,Ki,mMASP-2; read-out: mMASP-2 Ki,< 0.5 µM
same,IC50,Lectin Pathway,0.5 to 5 µM
same,Ki,MASP-2 (CCP1-CCP2-SP),< 0.5 µM
same,MASP-2 vs. thrombin selectivity,MASP-2 (CCP1-CCP2-SP); [1],**** (≥100-fold)
"Cc1nc(N)ccc1CNC(=O)[C@H](C)NC(=O)[C@H]1C[C@H](Cc2ccc(F)c3ccccc23)CN1 [compound 1423, (2R,4S)—N—((S)-1-(((6-Amino-2-methylpyridin-3-yl)methyl)amino)-1-oxopropan-2-yl)-4-((4-fluoronaphthalen-1-yl)methyl)pyrrolidine-2-carboxamide Dihydrochloride]",Ki,human α-thrombin; Thrombin Ki (μM),2.5 to 10 µM
same,Ki,mMASP-2; read-out: mMASP-2 Ki,< 0.5 µM
same,IC50,Lectin Pathway,0.05 to 0.5 µM
same,Ki,MASP-2 (CCP1-CCP2-SP),< 0.5 µM
same,MASP-2 vs. thrombin selectivity,MASP-2 (CCP1-CCP2-SP); [1],**** (≥100-fold)
"C[C@H](NC(=O)[C@@H](CCc1ccccc1)NCCc1ccc(Cl)cc1)C(=O)NCc1ccc(C(=N)N)cc1 [compound 1339, (R)—N—((S)-1-((4-Carbamimidoylbenzyl)amino)-1-oxopropan-2-yl)-2-((4-chlorophenethyl)amino)-4-phenylbutanamide Di-trifluoroacetate salt]",Ki,human α-thrombin; read-out: Thrombin Ki,< 0.5 µM
same,Ki,mMASP-2; read-out: mMASP-2 Ki,< 0.5 µM
same,IC50,Lectin Pathway,< 0.05 µM
same,Ki,MASP-2 (CCP1-CCP2-SP),< 0.5 µM
same,MASP-2 vs. thrombin selectivity,MASP-2 (CCP1-CCP2-SP); [1],** (≥5.0 to <25-fold)
"Cc1nc(N)ccc1CNC(=O)[C@H](C)NC(=O)[C@H]1C[C@H](Oc2ccccc2)CN1 [compound 1446, (2R,4S)—N—((S)-1-(((6-Amino-2-methylpyridin-3-yl)methyl)amino)-1-oxopropan-2-yl)-4-phenoxypyrrolidine-2-carboxamide]",Ki,human α-thrombin; read-out: Thrombin Ki,> 25 µM
same,Ki,mMASP-2; read-out: mMASP-2 Ki,0.5 to 2.5 µM
same,IC50,Lectin Pathway,5 to 50 µM
same,Ki,MASP-2 (CCP1-CCP2-SP),< 0.5 µM
same,MASP-2 vs. thrombin selectivity,MASP-2 (CCP1-CCP2-SP); [1],**** (≥100-fold)
Cc1c(Cl)cccc1CC[C@@H](N)C(=O)N[C@@H](C)C(=O)NCc1ccc(C(=N)N)cc1 [compound 1103],Ki,human α-thrombin; read-out: Thrombin Ki,< 0.5 µM
same,Ki,mMASP-2; read-out: mMASP-2 Ki,< 0.5 µM
same,IC50,Lectin Pathway,0.05 to 0.5 µM
same,MASP-2 vs. thrombin selectivity,MASP-2 (CCP1-CCP2-SP); MASP-2 inhibition versus thrombin,** (5.0 to 25-fold)
same,Ki,MASP-2 (CCP1-CCP2-SP),< 0.5 µM
"C[C@H](NC(=O)[C@H]1C[C@H](Cc2cccc3ccccc23)CN1)C(=O)NCc1cnc2[nH]cc(Cl)c2c1 [compound 1415, (2R,4S)—N—((S)-1-(((3-Chloro-1H-pyrrolo[2,3-b]pyridin-5-yl)methyl)amino)-1-oxopropan-2-yl)-4-(naphthalen-1-ylmethyl)pyrrolidine-2-carboxamide Hydrochloride]",Ki,human α-thrombin; read-out: Thrombin Ki,< 0.5 µM
same,Ki,mMASP-2; read-out: mMASP-2 Ki,< 0.5 µM
same,IC50,Lectin Pathway,0.05 to 0.5 µM
same,Ki,MASP-2 (CCP1-CCP2-SP),< 0.5 µM
same,MASP-2 vs. thrombin selectivity,MASP-2 (CCP1-CCP2-SP); [1],* (≥1.0 to <5.0-fold)
"C[C@H](NC(=O)[C@H]1C[C@H](Cc2ccc(C3CCC3)cc2)CN1)C(=O)NCc1cnc2[nH]cc(Cl)c2c1 [compound 1378, (2R,4S)—N—((S)-1-(((3-Chloro-1H-pyrrolo[2,3-b]pyridin-5-yl)methyl)amino)-1-oxopropan-2-yl)-4-(4-cyclobutylbenzyl)pyrrolidine-2-carboxamide Di-trifluoroacetate salt]",Ki,human α-thrombin; Thrombin Ki (μM),0.5 to 2.5 µM
same,Ki,mMASP-2; read-out: mMASP-2 Ki,< 0.5 µM
same,IC50,Lectin Pathway,0.5 to 5 µM
same,Ki,MASP-2 (CCP1-CCP2-SP),< 0.5 µM
same,MASP-2 vs. thrombin selectivity,MASP-2 (CCP1-CCP2-SP); [1],* (≥1.0 to <5.0-fold)
"Cc1nc(N)ccc1CNC(=O)[C@H](C)NC(=O)[C@H]1C[C@H](Cc2cccc3ccccc23)CN1 [compound 1324, (2R,4S)—N—((S)-1-(((6-Amino-2-methylpyridin-3-yl)methyl)amino)-1-oxopropan-2-yl)-4-(naphthalen-1-ylmethyl)pyrrolidine-2-carboxamide Di-trifluoroacetate salt]",Ki,human α-thrombin; Thrombin Ki (μM),0.5 to 2.5 µM
same,Ki,mMASP-2; read-out: mMASP-2 Ki,< 0.5 µM
same,IC50,Lectin Pathway,0.05 to 0.5 µM
same,Ki,MASP-2 (CCP1-CCP2-SP),< 0.5 µM
same,MASP-2 vs. thrombin selectivity,MASP-2 (CCP1-CCP2-SP); [1],*** (≥25 to <100-fold)
"Cc1nc(N)ccc1CNC(=O)[C@H](C)NC(=O)[C@H]1C[C@H](Cc2ccc(Cl)c(Br)c2)CN1 [compound 1451, (2R,4S)—N—((S)-1-(((6-Amino-2-methylpyridin-3-yl)methyl)amino)-1-oxopropan-2-yl)-4-(3-bromo-4-chlorobenzyl)pyrrolidine-2-carboxamide Di-trifluoroacetate salt]",Ki,human α-thrombin; Thrombin Ki (μM),10 to 25 µM
same,Ki,mMASP-2; read-out: mMASP-2 Ki,< 0.5 µM
same,IC50,Lectin Pathway,0.5 to 5 µM
same,Ki,MASP-2 (CCP1-CCP2-SP),< 0.5 µM
same,MASP-2 vs. thrombin selectivity,MASP-2 (CCP1-CCP2-SP); [1],**** (≥100-fold)
"Cc1nc(N)ccc1CNC(=O)[C@H](CCC(N)=O)NC(=O)[C@H]1C[C@H](Cc2ccccc2)CN1 [compound 1382, (S)—NI-((6-Amino-2-methylpyridin-3-yl)methyl)-2-((2R,4S)-4-benzylpyrrolidine-2-carboxamido)pentanediamide Di-trifluoroacetate salt]",Ki,human α-thrombin; read-out: Thrombin Ki,> 25 µM
same,Ki,mMASP-2,2.5 to 10 µM
same,IC50,Lectin Pathway,5 to 50 µM
same,Ki,MASP-2 (CCP1-CCP2-SP),< 0.5 µM
same,MASP-2 vs. thrombin selectivity,MASP-2 (CCP1-CCP2-SP); [1],*** (≥25 to <100-fold)
"Cc1nc(N)ccc1CNC(=O)[C@H](C)NC(=O)[C@H]1C[C@H](Cc2ccc(Cl)c(Cl)c2)CN1 [compound 1422, (2R,4S)—N—((S)-1-(((6-Amino-2-methylpyridin-3-yl)methyl)amino)-1-oxopropan-2-yl)-4-(3,4-dichlorobenzyl)pyrrolidine-2-carboxamide Dihydrochloride]",Ki,human α-thrombin; Thrombin Ki (μM),2.5 to 10 µM
same,Ki,mMASP-2; read-out: mMASP-2 Ki,< 0.5 µM
same,IC50,Lectin Pathway,0.5 to 5 µM
same,Ki,MASP-2 (CCP1-CCP2-SP),< 0.5 µM
same,MASP-2 vs. thrombin selectivity,MASP-2 (CCP1-CCP2-SP); [1],**** (≥100-fold)

# From US11584714B2 (priority 2018, dated 2023)
